Assay results as given in PMC11449324, “Functional comparison of human and murine equilibrative nucleobase transporter 1” (PLOS ONE, 2024).
Where two headings read alike, the source gives them in different places.

Legend:
mENBT1 = biological target: T1, mENBT1 (Mus musculus, UniProt A2AVZ9); assay: Inhibition of ENBT1-mediated substrate uptake in HEK293-mslc43a3 cells; assay type: cell-based
T1 construct: Oligonucleotides corresponding to the coding region of SLC43A3 (NM_001278201) or slc43a3 (NM_021398); expressed in transfected cells; HEK293-mslc43a3
T1 sequence (A2AVZ9 1-502): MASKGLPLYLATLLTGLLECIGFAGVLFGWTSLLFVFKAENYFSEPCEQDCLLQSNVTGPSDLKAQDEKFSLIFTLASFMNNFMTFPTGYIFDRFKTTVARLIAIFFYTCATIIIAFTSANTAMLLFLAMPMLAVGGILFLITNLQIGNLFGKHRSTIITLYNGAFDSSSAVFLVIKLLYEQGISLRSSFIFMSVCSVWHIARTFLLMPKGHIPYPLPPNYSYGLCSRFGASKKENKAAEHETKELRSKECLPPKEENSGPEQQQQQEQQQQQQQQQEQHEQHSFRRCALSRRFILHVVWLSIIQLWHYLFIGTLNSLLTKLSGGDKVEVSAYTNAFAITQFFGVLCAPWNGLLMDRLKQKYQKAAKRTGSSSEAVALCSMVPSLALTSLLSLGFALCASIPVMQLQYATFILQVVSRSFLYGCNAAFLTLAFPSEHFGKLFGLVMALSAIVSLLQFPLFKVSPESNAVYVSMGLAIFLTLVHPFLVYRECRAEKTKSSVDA
Procedure: Harvested cells were suspended in nominally sodium-free N-methyl-D-glucamine (NMG) buffer (140 mM NMG, 5 mM KCl, 4.2 mM KHCO3, 0.36 mM K2HPO4, 0.44 mM KH2PO4, 0.5 mM MgCl2, 1.3 mM CaCl2, 10 mM HEPES, pH 7.4), to minimize potential contribution of sodium-dependent concentrative nucleoside transporter-mediated uptake. Additionally, cells were incubated for 15 minutes at room temperature with 10 μM dipyridamole (DY), an equilibrative nucleoside transporter (ENT) inhibitor, to block equilibrative nucleoside transporter–mediated uptake. The substrate uptake assay was initiated by adding 250 μL cell suspension to 250 μL [^3H] labeled substrate, layered over 21:4 silicone:mineral oil (200 μL) in 1.5 mL microcentrifuge tubes (conducted at room temperature). The uptake reaction was terminated after 2 seconds by centrifugation of the cells through the oil layer at ~10,000 g. This is the minimum incubation time achievable with this oil-stop technique, and it was found in previous studies that these short incubation times were necessary to assess the kinetics of this transporter. The aqueous layer was removed via vacuum-powered aspirator, and the tube was washed with 1 mL of NMG buffer prior to removal of the oil layer. The resulting cell pellet was digested in 250 μL 1 M NaOH overnight (~16 hours), with 220 μL aliquots of digested cells assessed for radioactive content using standard liquid scintillation counting techniques in a Beckman Coulter LS6500 scintillation system (Brea, CA).
To assess the ability of compounds to inhibit substrate uptake, cells were incubated with the inhibitor for 15 minutes prior to initiating the uptake assay, or exposed to the cells simultaneously with the radiolabelled substrate. […] After subtraction of the non-mediated uptake component, the degree of inhibition was calculated as the ratio of cellular accumulation in the presence of test compound to that measured in its absence (X 100).
Each assay was repeated 5–6 times using independent cell isolations and reagent preparations. In addition, within each assay, there were two or three technical replicates (using the same reagents and cells) that were averaged to obtain a single data point. Nonlinear curves were fitted to data (presented as mean ± SD from the 5–6 independent experiments), and statistical analyses were done using GraphPad Prism 10 software. In all cases, if the P-value determined from a statistical test was less than 0.05, the null hypothesis was rejected and the alternative hypothesis was favoured. Significant differences between groups were assessed using either Student’s t-test or ordinary one- or two-way analysis of variance (ANOVA) followed by a post hoc Šidák multiple comparison test, as appropriate. For influx and cell viability analyses, significant differences in Km and EC50 value, respectively, between the hENBT1 and mENBT1 data sets, were determined by the extra sum-of-squares F test. For inhibition analyses, the Ki values were determined from the IC50 values using the specified substrate concentration [S], based on the Cheng-Prusoff equation Ki = IC50/(1 + [S]/Km) and experimentally obtained Km values.

HEK293-EV cells = assay: MTT cell viability assay, HEK293-EV; assay type: cell-based, human; conditions: Homo sapiens, 48 h, first-phase EC50 where biphasic
Procedure: Transfected-HEK293, MOLT-4, and L1210 cells were seeded into 24-well plates at a density of 1.1x10^5 cells per well in complete culture medium. […] Medium containing no cells was used to determine spontaneous MTT reduction (background). In transfected-HEK293 cells, media was removed via a vacuum-powered aspirator and replaced with 150 μL of Dulbecco’s phosphate buffered saline (DPBS—137 mM NaCl, 2.7 mM KCl, 6.3 mM Na2HPO4, 1.5 mM KH2PO4, 0.5 mM MgCl2, 0.9 mM CaCl2, pH 7.4) containing MTT (1 mg/mL) for 90 minutes at 37°C. In MOLT-4 and L1210, cell suspension was transferred to 1.5 mL microcentrifuge tubes and centrifuged for 10 minutes at 3000 rcf. Following centrifugation, media was removed via gentle pipetting and replaced with 150 μL of DPBS containing MTT (1 mg/mL) for 90 minutes at 37°C. Microcentrifuge tubes were centrifuged again for 15 minutes at 23,500 rcf, and then DPBS containing MTT was removed via a vacuum-powered aspirator. The resultant formazan crystals were solubilized in 500 μL of DMSO and transferred to a 96-well plate in 200 μL duplicates. Absorbance was measured at 570 nm, in a SpectraMax® i3x Multi-Mode Detection Platform (Molecular Devices, San Jose, CA). After background subtraction, % cell viability was calculated as the ratio of absorbance in the presence of test compound to that measured with vehicle alone (X 100).

Sc1ncnc2nc[nH]c12 [6-MP, 6-Mercaptopurine]
Ki (mENBT1; HEK293-mslc43a3, 30 μM [3H]adenine, 2 seconds, Cheng-Prusoff, read-out: Ki for inhibition of ENBT1-mediated [3H]adenine uptake): 7.4 ± 1.3 mM | inhibition of ENBT1-mediated [3H]adenine uptake (mENBT1; at highest concentration of 6-MP tested (1 mM), HEK293-mslc43a3): complete inhibition was not obtained | Ki relative to its Km for the transporter (mENBT1; mENBT1): 30 fold | EC50 (HEK293-EV cells): 18.8 ± 0.51 µM

Nc1ncnc2[nH]cnc12 [adenine, Adenine]
Ki (mENBT1): 0.051 ± 0.013 mM | inhibition of ENBT1-mediated [14C]6-MP uptake (mENBT1; at 1 mM adenine, HEK293-mslc43a3): near complete inhibition
